The source of these data is patent US11447504B2, “Macrocyclic chlorine substituted indole derivatives” (Bayer Aktiengesellschaft, priority 2017, dated 2022).

Where a name gives a salt, the structure may show the parent alone. Read-outs that look alike come from different tables or passages of the source.

Data set [1] concerns SUDHL5. Briefly: Induction of caspase-3/7 activity (Assay 4), SUDHL5. The data set is classed as cell-based. As to conditions: SUDHL5 cells. As to the method: (§1) Induction of Caspase-3/7 Activity Upon Treatment of Cells with Selected Compounds
The BH3-domain of MCL-1 sequesters pro-apoptotic proteins, thereby inhibiting apoptosis. In contrast, MCL-1 inhibitors are expected to antagonize this effect leading to an increase in apoptosis, which can be determined by measuring the activity of caspase-3/7.
(§2) The activity of caspase-3/7 was determined in DLBCL (Diffuse large B-cell lymphoma) cell lines (SUDHL5 and SUDHL10) upon treatment with different compounds, using the Caspase-Glo®3/7 reagent from Promega (G8092).
(§3) Rim wells were excluded. The cells were incubated for 3 hours in a humidified incubator at 37° C.
(§4) For the evaluation of the results, the background measured with “medium-only” was subtracted from all other values.

For data set [2], the system named is SUDHL10. Briefly: Induction of caspase-3/7 activity (Assay 4), SUDHL10. As to conditions: SUDHL10 cells. The data set is classed as cell-based. On the procedure: as §1
In contrast, MCL-1 inhibitors are expected to antagonize this effect leading to an increase in apoptosis, which can be determined by measuring the activity of caspase-3/7.
as §2, §3, §4

Data set [3] deals with SUDHL5. Briefly: Antiproliferation assay 7, SUDHL5. The data set is classed as cell-based. Particulars: SUDHL5 cells, CellTiter-Glo, read-out: Antiproli SUDHL5 IC50 (median). On the procedure: (§5) Assessment of the Anti-Proliferative Effect of Compounds in Different Cell Lines
(§6) The impact of compounds on the proliferation of different cell lines was assessed using the CellTiter-Glo® Luminescent Cell Viability reagent from Promega (G7573).
(§7) In parallel, cells were plated in a reference (day 0) plate for time zero determination.
(§8) Rim wells were excluded. The cells were incubated for 72 hours in a humidified incubator at 37° C. The day 0 plate was measured by adding 30 μL/well of CTG solution (CellTiter-Glo® Luminescent Cell Viability reagent, Promega G7573) to time zero wells in the reference plate followed by a 10 minutes incubation and luminescence reading at 0.1 ms. using the PHERAstar FS microplate reader (BMG Labtech).
(§9) After 72 hours incubation, the treated plates were measured in the same way as the day 0 plate mentioned above.
For orientation: Cellular ATP, detected with luciferase, serves as a proxy for viable cell number.

Data set [4] concerns SUDHL5. Briefly: Induction of cytotoxicity (Assay 6), SUDHL5.
Protocol: Assay 6 Induction of Cytotoxicity Upon Treatment of Cells with Selected Compounds
Therefore, cytotoxicity assays were run in parallel in SUDHL5 and SUDHL10 cells.
The different cell lines were plated in culture medium (RPMI 1640 [GIBCO #22400-089]supplemented with 10% Fetal Bovine Serum) at a density of 3,300 cells in 30 μL/well in a sterile, solid black, flat bottom, polystyrene, TC-treated 384-well microplate (Corning #3571) using Multidrop Combi Reagent Dispenser. As a control, medium without cells was also added to the plate. Cells were incubated in a humidified incubator at 37° C. overnight. […] Rim wells were excluded. The cells were incubated for 5 hours in a humidified incubator at 37° C. After this incubation, 30 μL of CellTiter-Glo® Luminescent Cell Viability reagent (Promega, G7573) was added to each well using the Multidrop Combi Reagent Dispenser, followed by 15 minutes incubation on a shaker at room temperature. Finally, luminescence was read at 0.1 ms, with a gain of 3000 using the PHERAstar FS microplate reader (BMG Labtech).
For data set [5], the system named is SUDHL10. Briefly: Induction of cytotoxicity (Assay 6), SUDHL10.
A further data set has as its system AMO-1. Briefly: Antiproliferation assay 7, AMO-1. Type of data set: cell-based. Particulars: AMO-1 cells, CellTiter-Glo, read-out: Antiproli AMO-1 IC50 median. On the procedure:
as §5, §6, §7, §8, §9

The test system of the next data set is MV-4-11. Briefly: Antiproliferation assay 7, MV-4-11. The data set is classed as cell-based. Particulars: MV-4-11 cells, CellTiter-Glo, read-out: Antiproli MV-4-11 IC50 median. On the procedure:
as §5, §6, §7, §8, §9

Where [6] appears, read: 3 hours, Caspase-Glo 3/7, read-out: Caspase SUDHL5 EC50 (median).
Setting [7] is: 3 hours, Caspase-Glo 3/7, read-out: Caspase SUDHL10 EC50 (median).
[8] abbreviates: read-out: Cytotox SUDHL5 IC50 (median), SUDHL5 cells, 5 hours, CellTiter-Glo.
Where [9] appears, read: read-out: Cytotox SUDHL10 IC50 (median), SUDHL10 cells, 5 hours, CellTiter-Glo.
The mark [10] stands for this setting: Homo sapiens, SU-DHL-5, 3 h, Caspase-Glo 3/7, read-out: Caspase SUDHL5 EC50 (median).
Setting [11] is: Homo sapiens, SU-DHL10, 3 h, Caspase-Glo 3/7, read-out: Caspase SUDHL10 EC50 (median).
[12] abbreviates: Homo sapiens, SU-DHL-5, 5 h, read-out: Cytotox SUDHL5 IC50 (median), SUDHL5 cells, 5 hours, CellTiter-Glo.
Setting [13] is: Homo sapiens, SU-DHL10, 5 h, read-out: Cytotox SUDHL10 IC50 (median), SUDHL10 cells, 5 hours, CellTiter-Glo.

What is called EC50 is the midpoint of the concentration-response curve. In general, IC50 refers to the concentration that gives 50% inhibition. Take `CCc1c2c(nn1C)N(CCC1CCOCC1)CCCCCn1c(C(=O)O)c(CCCOc3cccc4cc(F)ccc34)c3ccc(Cl)c-2c31` (single isomer, unassigned; enantiomer 2) [Example 82, 4-chloro-3-ethyl-7-{3-[(6-fluoronaphthalen-1-yl)oxy]propyl}-2-methyl-15-[2-(oxan-4-yl)ethyl]-10,11,12,13,14,15-hexahydro-2H-pyrazolo[4′,3′:4,5][1,6]diazacycloundecino[3,2,1-hi]indole-8-carboxylic acid N-ethylethanamine Salt—Enantiomer 2]: the half-maximal effective concentration (EC50) was determined as 24 µM in the data set with SUDHL5 [1] (setting [6]) and 23 µM in the data set with SUDHL10 [2] (setting [7]). The IC50 came out at 7.1 µM in the data set with SUDHL5 [3] (72 hours), 28 µM in the data set on SUDHL5 [4] (setting [8]) and 30 µM in the data set with SUDHL10 [5] (setting [9]).

Regarding `Cc1c2c(nn1C)COCC1CCC1Cn1c(C(=O)O)c(CCCOc3cccc4ccccc34)c3ccc(Cl)c-2c31` (single isomer, unassigned; stereoisomer 2) [Example 64], the concentration for a half-maximal effect (EC50) is 1.8 µM with SUDHL5 [1] (setting [6]) and 8.3 µM in the data set on SUDHL10 [2] (setting [7]). For the same compound, the IC50 in the data set on SUDHL5 [3] (72 hours) turned out to be 4.2 µM; in the data set on AMO-1 (72 hours), 10.8 µM; with SUDHL5 [4] (setting [8]) it was 2.3 µM; with SUDHL10 [5] (setting [9]) it was 7.3 µM.

As for `CCc1nn(C)c2c1-c1c(Cl)ccc3c(CCCOc4cccc5cc(F)ccc45)c(C(=O)O)n(c13)CCCCOC2` (single isomer, unassigned; enantiomer 2) [Example 35, (−)-4-chloro-3-ethyl-7-{3-[(6-fluoronaphthalen-1-yl)oxy]propyl}-1-methyl-1,10,11,12,13,15-hexahydropyrazolo[4′,3′:9,10][1,6]oxazacycloundecino[8,7,6-hi]indole-8-carboxylic Acid (Enantiomer 2)], the figures for the EC50 in the data set on SUDHL5 [1] (setting [6]) and with SUDHL10 [2] (setting [7]) were 7.6 µM and 22 µM, respectively. Further, the IC50 with SUDHL5 [3] (72 hours) was 6.1 µM; in the data set on MV-4-11 (72 hours), 8.59 µM; in the data set with AMO-1 (72 hours), 13.3 µM; in the data set with SUDHL5 [4] (setting [8]), 6.3 µM.

As to `CCc1nn(C)c2c1-c1c(Cl)ccc3c(CCCOc4cccc5cc(F)ccc45)c(C(=O)O)n(c13)CCCCOC2` (racemic) [Example 33, (rac)-4-chloro-3-ethyl-7-{3-[(6-fluoronaphthalen-1-yl)oxy]propyl}-1-methyl-1,10,11,12,13,15-hexahydropyrazolo[4′,3′:9,10][1,6]oxazacycloundecino[8,7,6-hi]indole-8-carboxylic Acid], the EC50 with SUDHL5 [1] (setting [10]) was found to be 0.67 µM; in the data set on SUDHL10 [2] (setting [11]), 5.7 µM. For the same compound, the IC50 with MV-4-11 (Homo sapiens, MV4-11, 72 h) worked out at 1.7 µM; in the data set with AMO-1 (Homo sapiens, AMO1, 72 h), 1.58 µM; in the data set with SUDHL5 [4] (setting [12]), 1 µM.

Take `CCc1c2c(nn1C)COCCCCn1c(C(=O)O)c(CCCOc3cccc4ccccc34)c3ccc(Cl)c-2c31` (single isomer, unassigned; enantiomer 2) [Example 21, 4-chloro-3-ethyl-2-methyl-7-[3-(naphthalen-1-yloxy)propyl]-2,10,11,12,13,15-hexahydropyrazolo[4′,3′:9,10][1,6]oxazacycloundecino[8,7,6-hi]indole-8-carboxylic Acid (Enantiomer 2)]: in the data set with SUDHL5 [1] (setting [6]), the concentration giving a half-maximal response (EC50) came to 4.6 µM. Besides, the concentration for half-maximal inhibition (IC50) in the data set with SUDHL5 [3] (72 hours) amounted to 3.3 µM; in the data set with SUDHL5 [4] (setting [8]) it was 3.7 µM; in the data set with SUDHL10 [5] (setting [9]), 11 µM.

As to `Cc1c2c(nn1C)CN(C)CCCCn1c(C(=O)O)c(CCCOc3cccc4ccccc34)c3ccc(Cl)c-2c31` (single isomer, unassigned; enantiomer 2) [Example 13, (−)-4-chloro-2,3,14-trimethyl-7-[3-(naphthalen-1-yloxy)propyl]-10,11,12,13,14,15-hexahydro-2H-pyrazolo[3′,4′:8,9][1,6]diazacycloundecino[10,11,1-hi]indole-8-carboxylic acid-N-ethylethanamine Salt (Enantiomer 2)], on SUDHL5 [1] (setting [6]), the concentration for a half-maximal effect (EC50) came out at 10 µM. Moreover, the concentration for half-maximal inhibition (IC50) was found to be 6.4 µM in the data set with SUDHL5 [3] (72 hours), 12.2 µM in the data set on MV-4-11 (72 hours), 6.9 µM with SUDHL5 [4] (setting [8]) and 13 µM in the data set on SUDHL10 [5] (setting [9]).

In the case of `Cc1c2c(nn1C)CNCCCn1c(C(=O)O)c(CCCOc3cccc4ccccc34)c3ccc(Cl)c-2c31` (racemic) [Example 28, (rac)-12-chloro-10,11-dimethyl-1-[3-(naphthalen-1-yloxy)propyl]-4,5,6,7,8,10-hexahydropyrazolo[3′,4′:7,8][1,5]diazecino[9,10,1-hi]indole-2-carboxylic Acid-Formic Acid Salt], the figures for the EC50 with SUDHL5 [1] (setting [10]) and in the data set with SUDHL10 [2] (setting [11]) were 2.9 µM and 5.8 µM, respectively. The IC50 was determined as 3 µM in the data set on SUDHL5 [3] (Homo sapiens, SU-DHL-5, 72 h); 8.08 µM in the data set with MV-4-11 (Homo sapiens, MV4-11, 72 h); 3.3 µM in the data set with SUDHL5 [4] (setting [12]); 5.6 µM in the data set with SUDHL10 [5] (setting [13]).

In the case of `Cc1c2c(nn1C)COCCCCn1c(C(=O)O)c(CCCOc3cccc4ccccc34)c3ccc(Cl)c-2c31` (single isomer, unassigned; enantiomer 2) [Example 27, 4-chloro-2,3-dimethyl-7-[3-(naphthalen-1-yloxy)propyl]-2,10,11,12,13,15-hexahydropyrazolo-[4′,3′:9,10][1,6]oxazacycloundecino[8,7,6-hi]indole-8-carboxylic acid-N-ethylethanamine Salt (Enantiomer 2)], the values for the EC50 at SUDHL5 [1] (setting [6]) and at SUDHL10 [2] (setting [7]) were 16 µM and 23 µM, respectively. Also, the IC50 came to 7.8 µM with SUDHL5 [3] (72 hours), 16.1 µM in the data set on MV-4-11 (72 hours), 10 µM in the data set with SUDHL5 [4] (setting [8]) and 20 µM with SUDHL10 [5] (setting [9]).

On to `Cc1c2c(nn1C)COCCCCn1c(C(=O)O)c(CCCOc3cccc4cc(F)ccc34)c3ccc(Cl)c-2c31` (single isomer, unassigned; enantiomer 2) [Example 17, (−)-4-chloro-7-{3-[(6-fluoronaphthalen-1-yl)oxy]propyl}-2,3-dimethyl-2,10,11,12,13,15-hexahydropyrazolo[4′,3′:9,10][1,6]oxazacycloundecino[8,7,6-hi]indole-8-carboxylic acid-N-ethylethanamine Salt (Enantiomer 2)], for which the results for the half-maximal effective concentration (EC50) on SUDHL5 [1] (setting [6]) and at SUDHL10 [2] (setting [7]) were 3.6 µM and 5.2 µM, respectively. Further, the 50% inhibitory concentration (IC50) was 1.5 µM in the data set with SUDHL5 [3] (72 hours), 6.7 µM in the data set on MV-4-11 (72 hours), 8.91 µM in the data set on AMO-1 (72 hours) and 3.3 µM in the data set with SUDHL5 [4] (setting [8]).

Regarding `Cc1c2c(nn1C)CN(C)CCCn1c(C(=O)O)c(CCCOc3cccc4ccccc34)c3ccc(Cl)c-2c31` (racemic) [Example 29, (rac)-12-chloro-7,10,11-trimethyl-1-[3-(naphthalen-1-yloxy)propyl]-4,5,6,7,8,10-hexahydropyrazolo[3′,4′:7,8][1,5]diazecino[9,10,1-hi]indole-2-carboxylic Acid], the EC50 came to 1.2 µM with SUDHL5 [1] (setting [10]) and 3.7 µM in the data set on SUDHL10 [2] (setting [11]). The IC50 came to 2.68 µM with MV-4-11 (Homo sapiens, MV4-11, 72 h) and 3.2 µM in the data set on SUDHL10 [5] (setting [13]).

Consider `CCc1c2c(nn1C)CN(C)CCCCn1c(C(=O)O)c(CCCOc3cccc4ccccc34)c3ccc(Cl)c-2c31` (single isomer, unassigned; enantiomer 2) [Example 24, 4-chloro-3-ethyl-2,14-dimethyl-7-[3-(naphthalen-1-yloxy)propyl]-10,11,12,13,14,15-hexahydro-2H-pyrazolo[3′,4′:8,9][1,6]diazacycloundecino[10,11,1-hi]indole-8-carboxylic Acid (Enantiomer 2)], for which the concentration for a half-maximal effect (EC50) with SUDHL10 [2] (setting [7]) is 10 µM. Also, the half-inhibitory concentration (IC50) amounted to 3.4 µM in the data set on SUDHL5 [3] (72 hours), 6.72 µM with MV-4-11 (72 hours), 4.7 µM in the data set with SUDHL5 [4] (setting [8]) and 7.4 µM with SUDHL10 [5] (setting [9]).
